Measured values as given in US20200399222A1, “PICOLINAMIDES AS FUNGICIDES” (Dow AgroSciences LLC, priority 2018, published 2020).
Like-named read-outs stand apart in the source and are kept apart here.

Key:
Assay type in all cases: in vivo
Puccinia triticina = experiment: Wheat brown rust (PUCCRT) disease control on wheat seedlings; settings: Low volume application, 121.5 g/ha
Summary of the method: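 Yuma wheat seedlings (first leaf emerged) sprayed to run-off with compound in acetone plus nine volumes water containing 110 ppm Triton X-100, or track-sprayed as EC formulations with 0.1% Trycol 5941. Rust spores inoculated before or after treatment; overnight dark dew, 22 °C, 100% RH, then greenhouse at 24 °C.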

Rhyncosporium secalis = experiment: Barley scald (RHYNSE) disease control on barley seedlings; settings: 1DP test at 100 ppm
Experimental: Technical grades of materials were dissolved in acetone, which were then mixed with nine volumes of water containing 110 ppm Triton X-100. The fungicide solutions were applied onto wheat seedlings using an automated booth sprayer to run-off. All sprayed plants were allowed to air dry prior to further handling. All fungicides were evaluated using the aforementioned method for their activity vs. all target diseases, unless stated otherwise. Wheat leaf blotch and brown rust activity were also evaluated using track spray applications, in which case the fungicides were formulated as EC formulations, containing 0.1% Trycol 5941 in the spray solutions. Example J: Evaluation of Fungicidal Activity: Barley Scald (Rhyncosporium secalis; Bayer Code […]) Barley seedlings (variety Harrington) were propagated in soil-less Metro mix, with each pot having 8 to 12 plants, and used in the test when first leaf was fully emerged. Test plants were inoculated by an aqueous spore suspension of Rhyncosporium secalis 24 hr after fungicide treatments. After inoculation the plants were kept in a dew room at 20° C. with 100% relative humidity for 48 hr. The plants were then transferred to a greenhouse set at 20° C. for disease to develop. Fungicide formulation, application and disease assessment on the sprayed leaves followed the procedures as described in the Example A.

Zymoseptoria tritici = experiment: Leaf blotch of wheat (SEPTTR) disease control on wheat seedlings; settings: Low volume application, 121.5 g/ha
Phakopsora pachyrhizi = experiment: Asian soybean rust (PHAKPA) disease control on soybean seedlings; settings: Phakopsora pachyrhizi, High volume application at 25 ppm
Summary of the method: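 Compounds in acetone diluted with nine volumes of water containing 0.011% Tween 20, sprayed to run-off on two-week-old Williams 82 soybean seedlings; inoculation 3 days before or 1 day after treatment. Plants held 24 h in dark dew room at 22° C, 100% RH, then at 23° C; disease severity scored on sprayed leaves.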

Alternaria solani = experiment: Tomato early blight (ALTESO) disease control on tomato plants; settings: 1DP test at 100 ppm
Experimental: Technical grades of materials were dissolved in acetone, which were then mixed with nine volumes of water containing 110 ppm Triton X-100. The fungicide solutions were applied onto wheat seedlings using an automated booth sprayer to run-off. All sprayed plants were allowed to air dry prior to further handling. All fungicides were evaluated using the aforementioned method for their activity vs. all target diseases, unless stated otherwise. Wheat leaf blotch and brown rust activity were also evaluated using track spray applications, in which case the fungicides were formulated as EC formulations, containing 0.1% Trycol 5941 in the spray solutions. Example D: Evaluation of Fungicidal Activity: Tomato Early Blight (Alternaria solani; Bayer Code […]) Tomato plants (variety Outdoor Girl) were propagated in soil-less Metro mix, with each pot having one plant, and used when 12 to 14 days old. Test plants were inoculated with an aqueous spore suspension of Alternaria solani 24 hr after fungicide treatments. After inoculation the plants were kept in 100% relative humidity (one day in a dark dew chamber followed by two to three days in a lighted dew chamber at 20° C.) to permit spores to germinate and infect the leaf. The plants were then transferred to a growth room at 22° C. for disease to develop. […]

Uncinula necator = experiment: Grape powdery mildew (UNCINE) disease control on grape seedlings; settings: 1DP test at 100 ppm
Experimental: Technical grades of materials were dissolved in acetone, which were then mixed with nine volumes of water containing 110 ppm Triton X-100. The fungicide solutions were applied onto wheat seedlings using an automated booth sprayer to run-off. All sprayed plants were allowed to air dry prior to further handling. All fungicides were evaluated using the aforementioned method for their activity vs. all target diseases, unless stated otherwise. Wheat leaf blotch and brown rust activity were also evaluated using track spray applications, in which case the fungicides were formulated as EC formulations, containing 0.1% Trycol 5941 in the spray solutions. Example K: Evaluation of Fungicidal Activity: Grape Powdery Mildew (Uncinula necator; Bayer Code […]) Grape seedlings (variety Carignane) were grown in soil-less Metro mix, with one plant per pot, and used in the test when approximately 1 month old. Plants were inoculated 24 hr after fungicide treatment by shaking spores from infected leaves over test plants. Plants were maintained in a greenhouse set at 20° C. until disease was fully developed. Fungicide formulation, application and disease assessment on sprayed leaves followed the procedures as described in the Example A.

[1] = test system: Pseudoperonospora cubensis; experiment: Cucumber downy mildew (PSPECU) disease control on cucumber seedlings; settings: 1DP test at 100 ppm
Experimental: Technical grades of materials were dissolved in acetone, which were then mixed with nine volumes of water containing 110 ppm Triton X-100. The fungicide solutions were applied onto wheat seedlings using an automated booth sprayer to run-off. All sprayed plants were allowed to air dry prior to further handling. All fungicides were evaluated using the aforementioned method for their activity vs. all target diseases, unless stated otherwise. Wheat leaf blotch and brown rust activity were also evaluated using track spray applications, in which case the fungicides were formulated as EC formulations, containing 0.1% Trycol 5941 in the spray solutions. Example H: Evaluation of Fungicidal Activity: Cucumber Downy Mildew (Pseudoperonospora cubensis; Bayer Code […]) Cucumber seedlings (variety Bush Pickle) were grown in soil-less Metro mix, with one plant per pot, and used in the test when 12 to 14 days old. Plants were inoculated with a spore suspension 24 hr following fungicide treatments. […] After inoculation the plants were kept in a dew room at 22° C. with 100% relative humidity for 24 hr to permit spores to germinate and infect the leaf. The plants were then transferred to a greenhouse set at 20° C. until disease was fully expressed. […]

[2] = 24 h, 1 Day Protectant, read-out: PUCCRT disease control rating, 1DP
[3] = 72 h, 3 Day Curative, read-out: PUCCRT disease control rating, 3DC
[4] = 24 h, 1 Day Protectant, read-out: SEPTTR disease control rating, 1DP
[5] = 72 h, 3 Day Curative, read-out: SEPTTR disease control rating, 3DC
[6] = 24 h, 1 day protectant, read-out: PHAKPA 1DP (1 Day Protectant) disease control
[7] = 72 h, 3 day curative, read-out: PHAKPA 3DC (3 Day Curative) disease control

SMILES	pest or weed control at 121.5 g/ha (Puccinia triticina; [2])	pest or weed control at 121.5 g/ha (Puccinia triticina; [3])	RHYNSE disease control rating (Rhyncosporium secalis)	pest or weed control at 121.5 g/ha (Zymoseptoria tritici; [4])	pest or weed control at 121.5 g/ha (Zymoseptoria tritici; [5])	pest or weed control at 25 ppm (Phakopsora pachyrhizi; [6])	pest or weed control at 25 ppm (Phakopsora pachyrhizi; [7])	ALTESO disease control rating (Alternaria solani)	UNCINE disease control rating (Uncinula necator)	PSPECU disease control rating [1]
COc1ccnc(C(=O)N[C@@H](C)C(=O)O[C@H](C)[C@H](C)c2ccccc2C)c1OC(C)=O [Example 263]	< 80%	< 80%	B (≤80)	< 80%	< 80%	> 80%	< 80%			
COc1ccnc(C(=O)N[C@@H](C)C(=O)O[C@@H](C)[C@@H](C)c2ccccc2C)c1OC(C)=O [Example 264]	> 80%	> 80%		< 80%	< 80%	> 80%	> 80%	B (≤80)	A (>80)	B (≤80)
